Source: US10138227B2, “Heteroaryl substituted pyridines and methods of use” (AbbVie S.à.r.l., priority 2016, dated 2018)

Biological target: T1, CFTR ΔF508 mutant (Homo sapiens, UniProt P13569, DEL508-508)
T1 construct: expressed in transfected cells; host or cells: CFBE41o- cells transduced with adenoviral vectors
Assay: YFP-halide influx assay for the CFTR-ΔF508 mutation
Type: cell-based
Conditions: CFBE41o- cells expressing CFTR ΔF508 and YFP reporter, forskolin 10.67 μM; for EC50: (1-F/F0) vs concentration
Source text: The YFP halide influx assay measured the functionality of the cystic fibrosis Transmembrane Conductance regulator (CFTR) channels in the cystic fibrosis bronchial epithelium cell line CFBE41o-. The assay was used to evaluate the capacity of compounds to increase the open probability of existing CFTR channels in the membrane. It makes use of the observation that the yellow fluorescent protein (YFP) variant YFP H148Q, I152L, F47L has its fluorescence substantially quenched by halide ions like Cl^− and I^− (Galietta, L. J. V., Haggie, P. M., Verkman, A. S., 2001. Green fluorescent protein-based halide indicators with improved chloride and iodide affinities. FEBS Lett. 499, 220-224. doi:10.1016/S0014-5793(01)02561-3; Nagai, T., Ibata, K., Park, E. S., Kubota, M., Mikoshiba, K., Miyawaki, A., 2002. A variant of yellow fluorescent protein with fast and efficient maturation for cell-biological applications. Nat. Biotechnol. 20, 87-90. doi:10.1038/nbt0102-87).
For this purpose, CFBE410-cells were seeded in 384 well plates (3000 CFBE cells/well). One day after seeding, the CFBE cells were transduced with adenoviral vectors that direct the expression of the CFTR ΔF508 mutant and of the YFP reporter. Cells were incubated at 27° C., 5% CO2 for 24 hours so as to allow for the proper folding and migration to the membrane of the CFTR channel or treated with a CFTR modulator during 24 hours at 37° C.
The I-induced quenching of fluorescence was recorded on an immediately after injection of iodide for 2 minutes on an FDSS/μCell (Hamamatsu). The capacity of a compound to increase the channel opening was directly correlated with the decrease in fluorescence, and was expressed as (1-(fluorescence after 36 seconds (F)/fluorescence before injection (F0))) and an EC50 was derived from a (1-F/F0) vs compound concentration plot.

T1 sequence (P13569 with tags, fused parts or gaps DEL508-508): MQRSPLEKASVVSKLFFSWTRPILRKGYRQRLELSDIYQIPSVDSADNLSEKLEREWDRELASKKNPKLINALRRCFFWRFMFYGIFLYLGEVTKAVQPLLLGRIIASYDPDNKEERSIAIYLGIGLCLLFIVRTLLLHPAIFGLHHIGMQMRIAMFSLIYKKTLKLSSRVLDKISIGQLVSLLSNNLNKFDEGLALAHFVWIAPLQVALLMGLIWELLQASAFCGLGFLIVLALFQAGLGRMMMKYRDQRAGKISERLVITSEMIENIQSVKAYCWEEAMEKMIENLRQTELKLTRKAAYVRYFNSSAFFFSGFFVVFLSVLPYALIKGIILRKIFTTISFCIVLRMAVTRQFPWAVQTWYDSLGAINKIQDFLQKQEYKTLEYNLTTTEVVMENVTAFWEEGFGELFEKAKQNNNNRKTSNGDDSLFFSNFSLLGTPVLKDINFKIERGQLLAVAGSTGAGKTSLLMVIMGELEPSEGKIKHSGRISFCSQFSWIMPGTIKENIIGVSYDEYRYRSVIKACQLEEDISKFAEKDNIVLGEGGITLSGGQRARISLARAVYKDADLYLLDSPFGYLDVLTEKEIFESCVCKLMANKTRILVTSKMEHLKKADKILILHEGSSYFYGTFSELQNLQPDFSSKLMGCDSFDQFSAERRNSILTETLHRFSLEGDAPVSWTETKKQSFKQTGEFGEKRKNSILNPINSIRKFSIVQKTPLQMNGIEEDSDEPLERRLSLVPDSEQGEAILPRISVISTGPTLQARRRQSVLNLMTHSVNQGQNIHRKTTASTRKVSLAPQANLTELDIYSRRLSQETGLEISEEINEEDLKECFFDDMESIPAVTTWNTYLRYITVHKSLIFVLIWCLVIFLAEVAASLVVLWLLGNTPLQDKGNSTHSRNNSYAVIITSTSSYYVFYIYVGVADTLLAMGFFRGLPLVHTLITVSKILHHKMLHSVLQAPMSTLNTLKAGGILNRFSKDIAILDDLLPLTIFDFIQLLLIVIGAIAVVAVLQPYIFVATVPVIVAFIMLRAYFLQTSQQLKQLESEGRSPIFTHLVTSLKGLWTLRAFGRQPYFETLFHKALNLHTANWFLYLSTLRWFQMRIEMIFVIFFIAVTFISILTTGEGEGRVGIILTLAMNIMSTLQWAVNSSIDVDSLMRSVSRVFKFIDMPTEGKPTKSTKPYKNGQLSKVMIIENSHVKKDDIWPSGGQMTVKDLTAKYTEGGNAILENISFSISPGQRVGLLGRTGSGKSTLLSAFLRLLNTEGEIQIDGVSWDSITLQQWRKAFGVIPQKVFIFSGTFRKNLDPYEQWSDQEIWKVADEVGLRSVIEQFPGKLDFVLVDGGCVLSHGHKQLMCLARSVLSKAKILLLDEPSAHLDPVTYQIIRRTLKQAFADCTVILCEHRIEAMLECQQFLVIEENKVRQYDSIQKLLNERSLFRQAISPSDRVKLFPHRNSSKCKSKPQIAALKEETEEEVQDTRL

Row | SMILES | % Activation | EC50
1 | Nc1cc(S(=O)(=O)c2ccc(OC(F)(F)F)cc2)cnc1-c1nnc(C[C@@H]2CCCO2)o1 [Compound 40, 2-(5-{[(2S)-oxolan-2-yl]methyl}-1,3,4-oxadiazol-2-yl)-5-[4-(trifluoromethoxy)benzene-1-sulfonyl]pyridin-3-amine] | 106.65% | 36.8 nM
2 | Nc1cc(S(=O)(=O)c2ccc(OC(F)(F)F)cc2)cnc1-c1nc(CC2CC2)no1 [Compound 50, 2-[3-(cyclopropylmethyl)-1,2,4-oxadiazol-5-yl]-5-[4-(trifluoromethoxy)benzene-1-sulfonyl]pyridin-3-amine] | 45.59% | > 1660 nM
3 | Nc1cc(S(=O)(=O)c2ccc(OC(F)(F)F)cc2)cnc1-c1nnc(COC(F)F)s1 [Compound 30, 2-{5-[(difluoromethoxy)methyl]-1,3,4-thiadiazol-2-yl}-5-[4-(trifluoromethoxy)benzene-1-sulfonyl]pyridin-3-amine] | 94.98% | 3.61 nM
4 | Nc1cc(S(=O)(=O)c2ccc(C(F)(F)F)cc2)cnc1-c1nnc(CO)s1 [Compound 62, (5-{3-amino-5-[4-(trifluoromethyl)benzene-1-sulfonyl]pyridin-2-yl}-1,3,4-thiadiazol-2-yl)methanol] | 113% | < 0.44 nM
5 | Nc1c(-c2nnc(CO)o2)ncc(S(=O)(=O)c2ccc(OC(F)(F)F)cc2)c1Br [Compound 66, (5-{3-amino-4-bromo-5-[4-(trifluoromethoxy)benzene-1-sulfonyl]pyridin-2-yl}-1,3,4-oxadiazol-2-yl)methanol] | <1.18% | –
6 | COC(C)(C)c1noc(-c2ncc(S(=O)(=O)c3ccc(OC(F)(F)F)cc3)cc2N)n1 [Compound 46, 2-[3-(2-methoxypropan-2-yl)-1,2,4-oxadiazol-5-yl]-5-[4-(trifluoromethoxy)benzene-1-sulfonyl]pyridin-3-amine] | 82.3% | > 1660 nM
7 | Nc1cc(S(=O)(=O)c2ccc(OC(F)(F)F)cc2)cnc1-c1nc(COc2ccc(F)cc2)no1 [Compound 49, 2-{3-[(4-fluorophenoxy)methyl]-1,2,4-oxadiazol-5-yl}-5-[4-(trifluoromethoxy)benzene-1-sulfonyl]pyridin-3-amine] | 29.2% | > 3320 nM
8 | Nc1cc(S(=O)(=O)c2ccc(C(F)(F)F)cc2)cnc1-c1nnc(CO)o1 [Compound 7, (5-{3-amino-5-[4-(trifluoromethyl)benzene-1-sulfonyl]pyridin-2-yl}-1,3,4-oxadiazol-2-yl)methanol] | 109.69% | 5.8 nM
9 | C[C@@](O)(c1nnc(-c2ncc(S(=O)(=O)c3ccc(OC(F)(F)F)cc3)cc2N)s1)C(F)(F)F [Compound 20, (2S)-2-(5-{3-amino-5-[4-(trifluoromethoxy)benzene-1-sulfonyl]pyridin-2-yl}-1,3,4-thiadiazol-2-yl)-1,1,1-trifluoropropan-2-ol] | 97.45% | 8.12 nM
10 | COCc1nnc(-c2ncc(S(=O)(=O)c3ccc(OC(F)(F)F)cc3)cc2N)o1 [Compound 37, 2-[5-(methoxymethyl)-1,3,4-oxadiazol-2-yl]-5-[4-(trifluoromethoxy)benzene-1-sulfonyl]pyridin-3-amine] | 119.85% | 28.7 nM
11 | Nc1cc(S(=O)(=O)c2ccc(OC(F)(F)F)cc2)cnc1-c1nnc(COCC2CC2)s1 [Compound 24, 2-{5-[(cyclopropylmethoxy)methyl]-1,3,4-thiadiazol-2-yl}-5-[4-(trifluoromethoxy)benzene-1-sulfonyl]pyridin-3-amine] | 100.82% | 13.7 nM
12 | Nc1cc(S(=O)(=O)c2ccccc2OC(F)(F)F)cnc1-c1nnc(CO)o1 [Compound 59, (5-{3-amino-5-[2-(trifluoromethoxy)benzene-1-sulfonyl]pyridin-2-yl}-1,3,4-oxadiazol-2-yl)methanol] | 106.56% | 4.25 nM
